Assay results as given in US9145354B2, “Pharmaceutical compounds” (priority 2011, dated 2015).
Like-named read-outs stand apart in the source and are kept apart here.

Molecular target: full length NS3/4a (Hepatitis C virus genotype 1b (isolate BK) (HCV), UniProt P26663)
Experiment: NS3 Protease Assay (Example A), FRET-based
Type: biochemical
How it was run: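 Initial rates were taken from fluorescence progress curves over 30 min at room temperature, and IC50 was fitted across replicates. In-house full-length NS3/4a cleaved a FRET peptide (5-FAMsp/QXL520) from the NS4A/B site. Medium: 50 mM Tris pH8, 20 mM DTT, 1% CHAPS, 10% glycerol, 5% DMSO.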

[1] = HCV NS3 protease assay, full length NS3/4a, read-out: Assay A IC50 (μM) average
[2] = read-out: IC50 against the protease activity of the full length NS3/4a

Sequence of full length NS3/4a (P26663 1027-1657): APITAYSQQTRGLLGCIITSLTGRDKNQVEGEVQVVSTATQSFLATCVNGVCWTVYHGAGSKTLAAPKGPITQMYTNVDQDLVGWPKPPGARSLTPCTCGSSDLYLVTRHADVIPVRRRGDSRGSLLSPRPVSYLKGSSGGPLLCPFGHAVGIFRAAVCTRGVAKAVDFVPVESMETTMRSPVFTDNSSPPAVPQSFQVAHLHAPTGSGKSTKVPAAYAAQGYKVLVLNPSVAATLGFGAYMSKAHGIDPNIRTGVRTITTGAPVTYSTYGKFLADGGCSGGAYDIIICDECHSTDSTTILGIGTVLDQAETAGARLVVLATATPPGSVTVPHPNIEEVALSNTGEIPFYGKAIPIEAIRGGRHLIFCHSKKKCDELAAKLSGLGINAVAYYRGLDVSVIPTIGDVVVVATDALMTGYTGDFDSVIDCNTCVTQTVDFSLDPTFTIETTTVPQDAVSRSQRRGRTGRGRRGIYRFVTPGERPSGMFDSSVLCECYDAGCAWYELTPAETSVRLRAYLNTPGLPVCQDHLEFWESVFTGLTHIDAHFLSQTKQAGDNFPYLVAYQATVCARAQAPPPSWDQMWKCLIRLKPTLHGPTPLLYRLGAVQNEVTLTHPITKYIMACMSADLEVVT

Compound	IC50 [1]	IC50 [2]	further results
CC[C@@H](N[C@H](C)CC(N)=O)c1ccc(Cl)c(C(=O)c2ccnc(N)c2)c1F [Example 206, (3R)-3-{[(1R)-1-{3-[(2-aminopyridin-4-yl)carbonyl]-4-chloro-2-fluorophenyl}propyl]amino}butanamide]	1.2 µM	1 to 5 µM	
CC[C@@H](N[C@@H](C)CC(N)=O)c1ccc(Cl)c(C(=O)c2ccc(NC)nc2)c1F [Example 207, (3S)-3-{[(1R)-1-(4-chloro-2-fluoro-3-{[6-(methylamino)pyridin-3-yl]carbonyl}phenyl)propyl]amino}butanamide]	0.37 µM	< 1 µM	
CC[C@@H](N[C@H](C)CC(N)=O)c1ccc(Cl)c(C(=O)c2ccc(NC)nc2)c1F [Example 208, (3R)-3-{[(1R)-1-(4-chloro-2-fluoro-3-{[6-(methylamino)pyridin-3-yl]carbonyl}phenyl)propyl]amino}butanamide]	3.1 µM	1 to 5 µM	
COc1ccc([C@H](N[C@H](C)CC(N)=O)C2CC2)c(F)c1C(=O)c1ccc(F)cc1 [Example 209, (3R)-3-{[(R)-cyclopropyl({2-fluoro-3-[(4-fluorophenyl)carbonyl]-4-methoxyphenyl})methyl]amino}butanamide]	2.7 µM	1 to 5 µM	
COc1ccc([C@H](N[C@@H](C)CC(N)=O)C2CC2)c(F)c1C(=O)c1ccc(F)cc1 [Example 210, (3S)-3-{[(R)-cyclopropyl({2-fluoro-3-[(4-fluorophenyl)carbonyl]-4-methoxyphenyl})methyl]amino} butanamide]	0.098 µM	< 1 µM	
CC[C@@H](N[C@H](C)CC(N)=O)c1ccc(OC)c(C(=O)c2cccc(F)c2)c1F [Example 211, (3R)-3-{[(1R)-1-{2-fluoro-3-[(3-fluorophenyl)carbonyl]-4-methoxyphenyl}propyl]amino}butanamide]		1 to 5 µM	inhibition at 1 µM: 47%
CC[C@@H](N[C@@H](C)CC(N)=O)c1ccc(OC)c(C(=O)c2cccc(F)c2)c1F [Example 212, (3S)-3-{[(1R)-1-{2-fluoro-3-[(3-fluorophenyl)carbonyl]-4-methoxyphenyl}propyl]amino}butanamide]	0.094 µM		
CC[C@@H](N[C@@H](C)CC(N)=O)c1ccc(Cl)c(C(=O)c2ccc(N)c(C#N)c2)c1F [Example 213, (3S)-3-{[(1R)-1-{3-[(4-amino-3-cyanophenyl)carbonyl]-4-chloro-2-fluorophenyl}propyl]amino} butanamide]	0.35 µM		
CC[C@@H](N)c1ccc(Cl)c(C(=O)c2ccc(Cl)nn2)c1F [Example 214, (1R)-1-{4-chloro-3-[(6-chloropyridazin-3-yl)carbonyl]-2-fluorophenyl}propan-1-amine]			inhibition at 10 µM (@ 10 uM): 51%; IC50 (stated as IC50 less than 30 μM or at least 40% inhibition at a concentration of 100 μM, read-out: IC50 against the protease activity of the full length NS3/4a): < 30 µM
CC[C@@H](N[C@@H](C)CC(N)=O)c1ccc(Cl)c(C(=O)c2ccc(OC)c(C#N)c2)c1F [Example 215, (3S)-3-{[(1R)-1-{4-chloro-3-[(3-cyano-4-methoxyphenyl)carbonyl]-2-fluorophenyl}propyl]amino} butanamide]	1.2 µM	1 to 5 µM	
CC[C@@H](N[C@H](C)CC(N)=O)c1ccc(Cl)c(C(=O)c2ccc(N)c(C#N)c2)c1F [Example 216, (3R)-3-{[(1R)-1-{3-[(4-amino-3-cyanophenyl)carbonyl]-4-chloro-2-fluorophenyl}propyl]amino} butanamide]	0.48 µM	< 1 µM	
CC[C@@H](N[C@H](C)CC(N)=O)c1ccc(Cl)c(C(=O)c2ccc(OC)c(C#N)c2)c1F [Example 217, (3R)-3-{[(1R)-1-{4-chloro-3-[(3-cyano-4-methoxyphenyl)carbonyl]-2-fluorophenyl}propyl]amino}butanamide]			inhibition at 30 µM (@ 30 uM): 38%
CC[C@@H](N[C@@H](CC(N)=O)C(C)C)c1ccc(Cl)c(C(=O)c2ccc(N)nc2)c1F [Example 218, (3S)-3-{[(1R)-1-{3-[(6-aminopyridin-3-yl)carbonyl]-4-chloro-2-fluorophenyl}propyl]amino}-4-methylpentanamide]		1 to 5 µM	inhibition at 1 µM: 42%
